Data on 1 compound can be found in patent US20240358692A1, “TREATMENT OF SCLERODERMA” (Aisa Pharma, Inc., priority 2023, published 2024).

Assay [1] relates to participants with SSc-RP. Kind of assay: Frequency of weekly symptomatic RP attacks (patient diary), Phase 2a Part A. The format is in vivo, human. The following applies: ITT Part A. The source says: (§1) Percent change from baseline evaluation for frequency of weekly RP attacks were or will be used as the primary efficacy variable. The sponsor-developed participant-informed diary will be used to record data. Frequency of weekly RP attacks is defined as the total number of RP attacks divided by the number of days with available diary data within the last 7 days of each dosing period then multiplied by 7. Total number of RP attacks during the last 7 days of screening period divided by the number of days with available data then multiplied by 7 will be used as baseline for the analysis of all periods. The variable will be calculated as follows: […]
(§2) Percent change from baseline evaluation for frequency of weekly RP attacks was and will be the primary efficacy endpoint. Frequency of weekly RP attacks is defined as the total number of RP attacks divided by the number of days with available diary data within the last 7 days of each dosing period then multiplied by 7. Total number of RP attacks during the last 7 days of screening period divided by the number of days with available data then multiplied by 7 will be used as baseline for the analysis of all periods.

Assay [2] relates to participants with SSc-RP. Kind of assay: Frequency of weekly RP attacks (all attacks; primary endpoint), patient diary. In kind it is in vivo, human. The following applies: ITT Part A.
From the text: as §1, §2

Where [3] appears, read: Tadalafil 5 mg, n=1, Excluding Outliers.
Setting [4] is: Tadalafil 5 mg, n=2, by Baseline RCS, second block (RCS >5.0).
Where [5] appears, read: tadalafil 5 mg daily, n=1, excluding outliers, second Baseline RCS subgroup, last 7 days of dosing.
[6] abbreviates: Tadalafil 5 mg, Baseline RCS stratum 2 (lower half of table).
Where [7] appears, read: tadalafil 5 mg daily, n=1, excluding outliers, last 7 days of dosing.
[8] abbreviates: tadalafil 5 mg daily, n=2, last 7 days of dosing.

For `CN1CC(=O)N2[C@H](c3ccc4c(c3)OCO4)c3[nH]c4ccccc4c3C[C@@H]2C1=O` [Tadalafil], in assay [1] (setting [3]), the “Weekly Symptomatic RP Attacks Change from Baseline, Mean” value (“Weekly Symptomatic RP Attacks Change” for short) is 6.00; the “Weekly Symptomatic RP Attacks Percent Change from Baseline, Mean” value is reported as 50.00%; the “Weekly Symptomatic RP Attacks, Mean” value amounted to 18.00. Moreover, in assay [1] (setting [4]), the “Weekly Symptomatic RP Attacks Change” value is listed as 4.50; the “Weekly Symptomatic RP Attacks Percent Change from Baseline, Mean” value is 62.50%; the “Weekly Symptomatic RP Attacks, Mean” value amounted to 12.50. In addition, in assay [1] (setting [5]), the “Weekly Symptomatic RP Attacks Change” value came to 6.00; the “Weekly Symptomatic RP Attacks Percent Change from Baseline, Mean” value turned out to be 50.00%; the “Weekly Symptomatic RP Attacks, Mean” value is 18.00. Besides, in assay [2] (setting [6]), the “Weekly RP Attacks (All Attacks) Change from Baseline, Mean” value was determined as 3.00; the “Weekly RP Attacks (All Attacks) Change from Baseline, Median” value is on record as 3.00; the “Weekly RP Attacks (All Attacks), Mean” value is given as 13.00; the “Weekly RP Attacks (All Attacks), Median” value is reported as 13.00. For the same compound, in assay [2] (setting [7]), the “Weekly RP Attacks (All Attacks) Change from Baseline, Mean” value turned out to be 6.00; the “Weekly RP Attacks (All Attacks) Change from Baseline, Median” value is 6.00; the “Weekly RP Attacks (All Attacks), Mean” value was determined as 19.00; the “Weekly RP Attacks (All Attacks), Median” value amounted to 19.00. In assay [2] (setting [8]), the “Weekly RP Attacks (All Attacks) Change from Baseline, Mean” value turned out to be 3.00; the “Weekly RP Attacks (All Attacks) Change from Baseline, Median” value was found to be 3.00; the “Weekly RP Attacks (All Attacks), Mean” value was 13.00; the “Weekly RP Attacks (All Attacks), Median” value stood at 13.00.
